From a melting point compilation (Tetko et al.; mined from patent text by program, amines drawn as free bases though some values may be those of a salt)

| SMILES | melting point [°C] |
| --- | --- |
| CN(C)C1N(C(=O)c2ccccc2)N=C2c3ccccc3SN21 (stereo unspecified) | 155 to 156 |
| CCNc1nc2c(N)nc(C)c(C)c2n1CC(C)C | 168 to 170 |
| CC(C)(C)OC(=O)N[C@H](Cc1ccc(C(F)(F)F)cc1)[C@@H](O)c1ccc(Cl)nc1 (racemic) | 157 to 158 |
| O=C(NC1CCOC1=O)c1cc2c(n(CC3CCCCC3)c1=O)CCCCCC2 (stereo unspecified) | 136 to 140 |
| CCCCc1nc(Cl)c(CC#N)n1Cc1ccc(C#N)cc1 | 110 to 113 |
| CCCCCOc1ccc(-c2ccc(CC[C@H]3CC[C@H](CCC)CC3)c(F)c2F)cc1 | 27 |
| FC(F)C(F)(F)Oc1cccc(Nc2nccc(-c3cccc(OC(F)(F)F)c3)n2)c1 | 98 to 100 |
| Oc1ccc(C2CCOC2(c2ccccc2)c2ccc(O)cc2)cc1 (stereo unspecified) | 194 to 196 |
| O=C1CC(Cc2ccc(Cl)cc2Cl)CN1 (stereo unspecified) | 85 to 86 |
| O=C(OCC(Cl)(Cl)Cl)n1ccnc1 | 80 |
| CC(C)n1nc(-c2cnc(N)nc2-c2cccc(F)c2)ccc1=O | 220 to 222 |
| CN(c1c(Cl)ccc2cc(-c3ncc(CO)s3)[nH]c12)S(=O)(=O)c1cccs1 | 214 to 215 |
| Cc1ccc2nc(-c3ccc(-c4ccccc4)cc3)nc(C(=O)O)c2c1 | 193 to 196 |
| O=C(O)C1CCCN1C(=O)COc1ccccc1 (stereo unspecified) | 109 to 111 |
| CNc1c(N)n(CC(C)(C)C)c(=O)[nH]c1=O | 217 to 220 |
| Clc1cccc(OCC(Cn2ccnc2)Sc2c(Cl)cccc2Cl)c1Cl (stereo unspecified) | 135 to 136 |
| Cn1c(SCC(=O)C23CC4CC(CC(C4)C2)C3)nnc1-c1cccs1 | 156 to 157 |
| CC(=O)NC[C@H]1CN(c2ccc(N3CCN(C(=O)CO)CC3)c(F)c2)C(=O)O1 | 87 to 90 |
| Cn1cc(C=O)c2cccc(F)c21 | 92 to 94 |
| CCCCCCCCCCCCCCCCCCOC(=O)P(=O)(OC)OC | 41 to 42 |
| CC(=O)N1N=C(c2ccncc2)OC1(C)c1ccccc1 (stereo unspecified) | 79 to 81 |
| CC(C)(C(=O)COc1cccc2ccccc12)C1OCCO1 | 69 |
| c1ccc(OC(Oc2cccc3ccccc23)Oc2cccc3ccccc23)cc1 | 88.5 to 90 |
| CC(=O)N(O)C(C)c1ccc2c(c1)Cc1ccccc1-2 (stereo unspecified) | 168 to 171 |
| COc1ccc(CC2CC(=O)CCN2C(=O)c2cc(C(F)(F)F)cc(C(F)(F)F)c2)cc1OC (stereo unspecified) | 133 |
| CC(C)(Cc1ccc(Cl)cc1)C(C#N)C(=O)O (stereo unspecified) | 137 to 138 |

| SMILES | melting point [°C] |
| --- | --- |
| CCOC(=O)/C=C/c1ccc(/C=C(\C)c2ccc3c(c2)C(C)(C)CCC3(C)C)cc1 | 126 to 127 |
| NCC(=O)N(O)Cc1ccccc1 | 142 to 143 |
| CS(=O)c1ccc(Oc2ccc([N+](=O)[O-])cc2)cc1 (stereo unspecified) | 76 to 78 |
| CCOC(=O)C(=CNc1ncnc2ccc(CC)cc12)C(=O)OCC | 104 to 106 |
| O=C1CNCCN1CCc1ccccc1 | 75 to 78 |
| CC(C)(C)NCC(O)c1cc(Cl)c(NC(=O)c2ccccc2)c(Cl)c1 (stereo unspecified) | 177 to 182 |
| O=C1NCCCCC1NC(c1ccccc1)(c1ccccc1)c1ccccc1 (stereo unspecified) | 189 |
| COc1cc2c(cc1OC)CCC(/C=C/C(=N)NO)=C2 | 199 to 203 |
| COc1c(OCc2ccc(-c3ccccc3S(=O)(=O)Nc3noc(C)c3C)c(COCCF)c2)cc(C)nc1C | 81 to 86 |
| Cc1cc(C)cc(C(=O)N2CCC(Oc3nc4ccccc4n3Cc3ccc(F)cc3)CC2Cc2ccccc2)c1 (stereo unspecified) | 154 |
| Cc1c(=O)o[n-][n+]1CCSC12CC3CC(CC(C3)C1)C2 | 92 to 93 |
| CC(CCCC(C)(C)O)C1CCC2C3CC=C4CC(O)CCC4(C)C3CCC12C (stereo unspecified) | 168 to 175 |
| C[C@@H](N1CCN(c2ccc(-n3cnn(Cc4ccc(C(F)(F)F)cc4C(F)(F)F)c3=O)cc2)CC1)[C@](O)(Cn1cncn1)c1ccc(F)cc1F | 146 to 148 |
| Cc1ccc(S(=O)(=O)NCCC2CCC(CC(=O)O)CC2)cc1 (stereo unspecified) | 104 to 105 |
| COc1ccc(C2(C34CC5CC(CC(C5)C3)C4)N=C(N)N(C)C2=O)cc1 (stereo unspecified) | 150 to 155 |
| CCCOc1ccccc1-c1nc2[nH]c(=O)nnc2c(=O)[nH]1 | 298 to 299 |
| CCOC(=O)c1cn(-c2ccc(C(F)(F)F)cn2)nc1C(C)C | 94 to 95 |
| NS(=O)(=O)Oc1cccc(C(F)(F)F)c1 | 100 to 102 |
| OC1c2ccccc2OC12CCCCCC2 (stereo unspecified) | 104 to 107 |
| COCOc1ccc(-c2ccc3c(c2)C(C)(C)CCC3(C)C)cc1-c1ccc(C(=O)O)cc1 | 137 to 140 |
| CCC(CC)OC(=O)c1ccc(C(=O)NS(=O)(=O)c2cccc(C(=O)NCCc3ccccc3)c2)cn1 | 189 to 191 |
| CN(C(=O)c1ccc(Cl)cc1)c1ccccc1CCCC(=O)O | 123 |
| Cn1c(CCCOc2ccc(CC3SC(=O)N(C(c4ccccc4)(c4ccccc4)c4ccccc4)C3=O)cc2)nc2cccnc21 (stereo unspecified) | 76 to 81 |
| CCOC(=O)C1=C(C)NC(C)=C(C(=O)OCCBr)C1c1cccc([N+](=O)[O-])c1 (stereo unspecified) | 158 to 159 |
| CN(C)CCCCC1CCCN(CCNC(=O)N2c3ccccc3C(=O)Nc3cccnc32)C1 (stereo unspecified) | 119 to 120 |
| CC(=O)c1ccc(C(=O)c2ccc(O)c(CC(=O)O)c2)cc1 | 235 |

| SMILES | melting point [°C] |
| --- | --- |
| CCCCC[C@@H](CNC(=O)Nc1c(OC(C)C)c(C)nn1-c1ccccc1)c1cccc2c1OCO2 | 126 |
| Oc1ccc(-c2ccc(C#CC3(O)CN4CCC3CC4)cc2)cc1 (stereo unspecified) | 230 to 233 |
| CC(=O)N1CCN(c2ccc([N+](=O)[O-])c(C)c2)CC1 | 133 to 137 |
| Cc1c(NC(=O)c2ccc(-c3ccc(F)cc3)cc2)ccc2cc(CN3CCC(CCCC(=O)N4CCCCC4)CC3)cnc12 | 154 to 156 |
| CCOC(=O)C1=C(C)NC(C)=C(C(=O)OCC)C1c1csc2ccccc12 | 139 to 142 |
| COC(=O)c1ccc(-c2ccc(-c3ccc4c(c3)C(C)(C)CCC4(C)C)s2)cc1 | 126 to 129 |
| COC(=O)NC1CCc2ccsc2C1 (stereo unspecified) | 156 to 157 |
| CCOC(=O)c1cn(CC)c2ncnn2c1=O | 129 to 131 |
| O=C(O)c1ccccc1-c1cc(-c2ccccc2)on1 | 144 to 146 |
| CCOC(=O)c1c2ccc(Cl)cc2c(-c2ccccc2)n1CCCO | 94 to 96 |
| Cc1ccccc1C(=O)Nc1ccc(C(=O)N2CCCC(COS(C)(=O)=O)c3ccccc32)cc1 (stereo unspecified) | 189 to 190 |
| COC(=O)CN1CSC=C(N2C(=O)c3ccccc3C2=O)C1=O | 181 to 183 |
| O=C(NCCCC1OCC(c2cccc3ccccc23)CO1)C(F)(F)F (stereo unspecified) | 83 to 84 |
| Nc1nc2c(s1)CCN(CC=Cc1cccc(OCc3ccccc3)c1)CC2 | 78 to 80 |
| COCc1ccc2sc(C(=O)OC)c(C)c2c1 | 88 to 89 |
| Cc1cccc(N2CCC(N)=N2)c1 | 119 to 120 |
| O=C(O)COc1ccc2c(=O)c3ccc(Cl)cc3oc2c1Cl | 270 |
| CC(=O)NC(CSC(c1ccccc1)(c1ccccc1)c1ccccc1)C(=O)NCCSC(=O)C(C)C (stereo unspecified) | 147 to 148 |
| COCCOc1ccc(CN)cc1O | 89 to 90 |
| COC(=O)c1nc(C)c(-c2nccs2)s1 | 129 to 130 |
| Cc1cc(C)cc(NC(=O)c2cc(Br)ccc2O)c1 | 188 to 190 |
| O=c1[nH]c2ccc(C3=NOC(CN4CCC(Cc5ccc(F)cc5)C(O)C4)C3)cc2o1 (stereo unspecified) | 224 to 233 |
| CC(=O)Nc1ccc(OC(C)(C)C(=O)c2ccccc2)cc1 | 141 to 142 |
| CCCC(C)n1c(=O)nc(-n2cccn2)[nH]c1=O (stereo unspecified) | 99 to 100 |
| COc1cccc(OC)c1N(COC(C)C)C(=O)CCl | 85 to 90 |
| Cc1nn(-c2ccccc2)cc1C(=O)Nc1ccc(OCC(C)(C)C)c(C#N)c1 | 155 to 156 |

| SMILES | melting point [°C] |
| --- | --- |
| O=C(CN1C(=O)CC1S(=O)c1ccccc1)NCCCCCCc1ccc(Cl)cc1 (stereo unspecified) | 113 to 115 |
| CC(=O)N1CCN(CC(C)NC(=O)c2ccc3c(c2)c(-c2ccccc2)nn3C)CC1 (stereo unspecified) | 98.8 to 100 |
| CC(=O)c1ccc2c(c1)C(n1ccccc1=O)C(O)C(C)(C)O2 (stereo unspecified) | 260 |
| Cc1cccc(-c2n[nH]cc2-c2ccc(F)c(-c3cnn(CCO)c3)c2)n1 | 132 to 135 |
| COc1ccc(C(=CC(=O)N2CCOCC2)c2ccc(NC(=O)NS(=O)(=O)c3ccc(C)cc3)cc2)cc1OC | 220 to 225 |
| CCC(O)c1cc(C)nc(Oc2c(C)cc(C)cc2C)c1C (stereo unspecified) | 119 to 120 |
| CCC(=O)c1cc(Br)no1 | 35 to 37 |
| CN1C(=O)C=C[C@]2(C)c3ccc(-c4cccc([N+](=O)[O-])c4)cc3CC[C@@H]12 | 175 to 177 |
| Cc1nc(N2CCC(Cc3ccc(OC(F)(F)F)cc3)C2=O)sc1C(=O)NCc1cccnc1 (stereo unspecified) | 158 to 160 |
| CN(C)CCN(C(=O)OC(C)(C)C)C1=NCC(=O)N(C)c2ccccc21 | < 35 |
| CC12CCC3c4ccc(C(=O)O)cc4CCC3C1CCC2C(=O)CCC1CCCCC1 (stereo unspecified) | 250 to 253 |
| O=C(O)c1ccc(-c2nnc(-c3ccc(OC(F)(F)C(F)(F)F)cc3)o2)cc1 | 301 to 307 |
| COC(=O)c1cc(-n2cnnc2)c(C(F)(F)F)cc1N | 184 to 186 |
| Ic1c2n(c3ccc(OC4CC4)cc13)CCC2 | 104 to 105 |
| C=CCOc1nc2ccccc2c2ncc(C(=O)OCC)c(=O)n12 | 191 to 195 |
| Cc1cc(C)c2c(c1)C=C(/C=C/C=C/C=C/C(=O)O)C(C)(C)O2 | 200 to 202 |
| O=C(O)c1ccc(-c2nc(-c3ccccc3C(F)(F)F)cs2)cc1 | 225 to 227 |
| CCC1CN2C(C)=Nc3c(C)nn(C)c3C2=N1 (stereo unspecified) | 121 to 123 |
| CCSc1cc(C)nc(SCC)c1NC(=O)CCCSc1nc2ccccc2s1 | 119 to 120 |
| O=C(O)C(=O)c1ccc(OCCOc2ccc3ccccc3c2)cc1Cl | 152 to 153 |
| O=C(O)CCc1cn(Cc2ccccc2)c2ccccc12 | 110 to 112 |
| CC1(C)CS(=O)(=O)CC(C)(C)N1Cl | 163 |
| O=C(O)CCCCC(=O)Oc1ccc([N+](=O)[O-])cc1 | 104 to 105 |
